Legend:
[1] = Emulsion zeta potential by electrophoretic mobility; type: physicochemical; conditions: 25° C., dilution 1:250
Procedure: Zeta potential can be measured by a zetameter such as Zetasizer 2000, Malvern Instruments Ltd, UK. The zeta potential of the emulsion droplet surface is determined by electrophoretic mobility. Measurements are performed at 25° C. following dilution at 1:250 of the emulsion in double distilled water. The electrophoretic mobility is converted into zeta potential values through the Smoluchowsky equation.

[2] = Emulsion droplet size by dynamic light scattering; type: physicochemical; conditions: 25° C., diluted in double distilled water
Procedure: Measurements are performed at 25° C. following dilution of the emulsion in double distilled water.

[3] = tested on: white male New Zealand rabbits; experiment: Ocular irritation, adaptation of the Draize test; type: in vivo; conditions: BAK C16 within an emulsion; 50 μL instilled, rabbit eye; FIG. 2
Procedure: The ocular irritation of the emulsions and solutions has been evaluated using an adaptation of the Draize test on white male New Zealand rabbits (2.75-3.00 kg). Fifty μL of emulsion or solution were instilled unilaterally and 50 μL of NaCl 0.9% in the other eye of the three rabbits per group. General aspect assessment of the animals was performed (behavior, blinking, itching of the eye with forelegs) as well as eye tissue evaluation (conjunctiva, cornea, iris) after instillation, 1, 24, 48 and 72 hours. Observations were scored according to the Draize test protocol.

SMILES	Emulsions zeta potential ([1]; emulsion containing 0.0025% QA)	Emulsions zeta potential ([1]; emulsion containing 0.005% QA)	Emulsion droplet size ([2]; emulsion containing 0.0025% QA)	Emulsion droplet size ([2]; emulsion containing 0.005% QA)	Emulsion droplet size ([2]; emulsion containing 0.01% QA)	Emulsion droplet size ([2]; emulsion containing 0.02% QA)	Emulsion droplet size ([2]; emulsion containing 0.04% QA)	Emulsion droplet size ([2]; emulsion containing 0.1% QA)	Emulsions zeta potential ([1]; emulsion containing 0.01% QA)	Emulsions zeta potential ([1]; emulsion containing 0.02% QA)	Emulsions zeta potential ([1]; emulsion containing 0.04% QA)	Emulsions zeta potential ([1]; emulsion containing 0.1% QA)	Emulsion droplet size ([2]; emulsion containing 0.001% QA)	Emulsions zeta potential ([1]; emulsion containing 0.001% QA)	Ocular irritation (toxicity), Draize score [3]
CCCCCCCCCCCC[N+](C)(C)C.[Br-] [ATAB C12, lauryl trimethyl ammonium bromide]	−35.5 mV	−14.6 mV													
CCCCCCCCCCCCCCCC[N+](C)(C)C.[Br-] [ATAB C16, cetyl trimethyl ammonium bromide]	+11.9 mV	+20.2 mV	222 nm	212 nm											
CCCCCCCCCCCC[N+](C)(C)Cc1ccccc1 [BAK C12, benzododecinium chloride]		−6.9 mV		198 nm	263 nm	230 nm	225 nm	180 nm	+4.2 mV	+7.9 mV	+16.8 mV	+23.8 mV			
CCCCCCCCCCCCCC[N+](C)(C)Cc1ccccc1 [BAK C14, myristalkonium chloride]	+11.4 mV	+19.6 mV	204 nm	190 nm	190 nm	155 nm	238 nm	185 nm	+22.9 mV	+28.4 mV	+39.3 mV	+44.5 mV			
CCCCCCCCCCCCCCCC[N+](C)(C)Cc1ccccc1 [BAK C16, cetylkonium chloride]	+24.4 mV	+31.4 mV	210 nm	148 nm	180 nm	155 nm	188 nm	183 nm	+36.7 mV	+44.1 mV	+47.2 mV	+48.9 mV	220 nm	+16.2 mV	unexpected decrease of its toxicity

— patent US9132071B2, “Compositions containing quaternary ammonium compounds” (SANTEN SAS, priority 2006, dated 2015)
